Experimental data published in patent US10689401B2, “C5-C6-oxacyclic fused iminothiazine dioxide compounds bearing an ether linker as BACE inhibitors, compositions, and their use” (Merck Sharp & Dohme Corp., priority 2016, dated 2020).

Experiments:
[1] = target: Recombinant human soluble BACE1 catalytic domain (Homo sapiens (Human), UniProt P56817); test: BACE1 HTRF FRET Assay; type: biochemical; settings: for Ki: Ki calculated from IC50 using the Cheng-Prusoff equation, QSY7-APPswe-Eu substrate, pH 5.0, read-out: BACE-1 Ki
Chain of Recombinant human soluble BACE1 catalytic domain (P56817 75-416): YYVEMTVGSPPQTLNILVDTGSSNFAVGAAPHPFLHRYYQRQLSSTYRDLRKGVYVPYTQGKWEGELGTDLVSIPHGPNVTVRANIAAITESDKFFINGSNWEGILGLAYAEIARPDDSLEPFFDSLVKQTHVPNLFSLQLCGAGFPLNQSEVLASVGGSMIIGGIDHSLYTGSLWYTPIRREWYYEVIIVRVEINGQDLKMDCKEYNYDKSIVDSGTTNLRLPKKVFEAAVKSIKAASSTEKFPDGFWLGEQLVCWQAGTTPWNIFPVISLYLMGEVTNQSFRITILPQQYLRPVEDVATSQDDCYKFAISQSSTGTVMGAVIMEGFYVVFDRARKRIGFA
From the text: Reagents: Na^+-Acetate pH 5.0; 1% Brij-35; Glycerol; Dimethyl Sulfoxide (DMSO); Recombinant human soluble BACE1 catalytic domain (>95% pure); APP Swedish mutant peptide substrate (QSY7-APP^swe-Eu): QSY7-EISEVNLDAEFC-Europium-amide.
A homogeneous time-resolved FRET assay can be used to determine IC50 values for inhibitors of the soluble human BACE1 catalytic domain. This assay monitors the increase of 620 nm fluorescence that resulted from BACE1 cleavage of an APPswedish APP^swe mutant peptide FRET substrate (QSY7-EISEVNLDAEFC-Europium-amide). This substrate contains an N-terminal QSY7 moiety that serves as a quencher of the C-terminal Europium fluorophore (620 nm Em). In the absence of enzyme activity, 620 nm fluorescence is low in the assay and increased linearly over 3 hours in the presence of uninhibited BACE1 enzyme. Inhibition of BACE1 cleavage of the QSY7-APP^swe-Eu substrate by inhibitors is manifested as a suppression of 620 nm fluorescence.
Varying concentrations of inhibitors at 3× the final desired concentration in a volume of 10 ul are preincubated with purified human BACE1 catalytic domain (3 nM in 10 μl) for 30 minutes at 30° C. in reaction buffer containing 20 mM Na-Acetate pH 5.0, 10% glycerol, 0.1% Brij-35 and 7.5% DSMO. Reactions are initiated by addition of 10 μl of 600 nM QSY7-APP^swe-Eu substrate (200 nM final) to give a final reaction volume of 30 μl in a 384 well Nunc HTRF plate. The reactions are incubated at 30° C. for 1.5 hours. The 620 nm fluorescence is then read on a Rubystar HTRF plate reader (BMG Labtechnologies) using a 50 millisecond delay followed by a 400 millisecond acquisition time window. Inhibitor IC50 values are derived from non-linear regression analysis of concentration response curves. Ki values are then calculated from IC50 values using the Cheng-Prusoff equation using a previously determined […] of 8 μM for the QSY7-APP^swe-Eu substrate at BACE1.

[2] = target: purified human autoBACE-2 (Homo sapiens (Human), UniProt Q9Y5Z0); test: BACE-2 Assay (BACE-HTRF assay); type: biochemical; settings: Ki calculated from IC50 using the Cheng-Prusoff equation; QSY7-EISEVNLDAEFC-Eu-amide substrate, pH 5.0
Chain of purified human autoBACE-2 (Q9Y5Z0 63-518): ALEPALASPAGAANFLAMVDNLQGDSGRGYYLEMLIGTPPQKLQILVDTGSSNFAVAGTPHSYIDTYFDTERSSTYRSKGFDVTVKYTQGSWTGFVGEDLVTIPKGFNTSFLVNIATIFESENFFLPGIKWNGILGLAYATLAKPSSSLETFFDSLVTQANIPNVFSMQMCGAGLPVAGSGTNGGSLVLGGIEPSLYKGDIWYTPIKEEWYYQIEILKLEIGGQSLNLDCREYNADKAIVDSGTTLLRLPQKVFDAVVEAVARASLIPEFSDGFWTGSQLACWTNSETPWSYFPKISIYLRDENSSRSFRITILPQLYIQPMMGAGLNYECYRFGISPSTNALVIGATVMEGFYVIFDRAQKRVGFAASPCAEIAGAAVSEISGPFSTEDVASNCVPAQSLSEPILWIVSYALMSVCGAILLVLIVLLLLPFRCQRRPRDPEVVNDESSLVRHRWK
Method: Inhibitor IC50s at purified human autoBACE-2 are determined in a time-resolved endpoint proteolysis assay that measures hydrolysis of the QSY7-EISEVNLDAEFC-Eu-amide FRET peptide substrate (BACE-HTRF assay). BACE-mediated hydrolysis of this peptide results in an increase in relative fluorescence (RFU) at 620 nm after excitation with 320 nm light. Inhibitor compounds, prepared at 3× the desired final concentration in 1×BACE assay buffer (20 mM sodium acetate pH 5.0, 10% glycerol, 0.1% Brij-35) supplemented with 7.5% DMSO are preincubated with an equal volume of autoBACE-2 enzyme diluted in 1×BACE assay buffer (final enzyme concentration 1 nM) in black 384-well NUNC plates for 30 minutes at 30° C. […] DMSO is present at 5% final concentration in the assay. Following laser excitation of sample wells at 320 nm, the fluorescence signal at 620 nm is collected for 400 ms following a 50 μs delay on a RUBYstar HTRF plate reader (BMG Labtechnologies). Raw RFU data is normalized to maximum (1.0 nM BACE/DMSO) and minimum (no enzyme/DMSO) RFU values. IC50s are determined by nonlinear regression analysis (sigmoidal dose response, variable slope) of percent inhibition data with minimum and maximum values set to 0 and 100 percent respectively. Similar IC50s are obtained when using raw RFU data. The Ki values are calculated from the IC50 using the Cheng-Prusoff equation.

| Structure (SMILES) | Ki [1] [nM] | Ki [2] [nM] | inhibition at 10 µM ([1]; @10 μM, read-out: BACE-1 inhibition (printed in BACE-1 Ki column)) [%] |
| --- | --- | --- | --- |
| CC1(C)C[C@@H]2[C@](c3ccccc3F)(CO1)NC(=N)C(C)(C)S2(=O)=O [Example 17, (4aS,8aR)-4a-(2-fluorophenyl)-2,2,7,7-tetramethyltetrahydro-2H,5H-pyrano[4,3-b][1,4]thiazin-3(4H)-imine 1,1-dioxide] | 300 | 293 |  |
| CC(C)[C@H]1C[C@@H]2[C@](c3ccccc3F)(CO1)NC(=N)C(C)(C)S2(=O)=O [Example 25, (4aS,7R,8aR)-4a-(2-fluorophenyl)-2,2-dimethyl-7-(propan-2-yl)tetrahydro-2H,5H-pyrano[4,3-b][1,4]thiazin-3(4H)-imine 1,1-dioxide] | 185 | 195 |  |
| C[C@H]1C[C@@H]2[C@](c3cc(Oc4cc(C#N)ccn4)ccc3F)(CO1)NC(=N)C(C)(C)S2(=O)=O [Example 6, 2-(4-fluoro-3-((4aS,7S,8aR)-3-imino-2,2,7-trimethyl-1,1-dioxidooctahydropyrano[4,3-b][1,4]thiazin-4a-yl)phenoxy)isonicotinonitrile] | 23.6 | 19.2 |  |
| CC1(C)C(=N)N[C@@]2(c3cc(Oc4ncccc4F)ccc3F)CO[C@@H](c3ccc(F)cc3)C[C@H]2S1(=O)=O [Example 14, (4aS,7R,8aR)-4a-(2-fluoro-5-((3-fluoropyridin-2-yl)oxy)phenyl)-7-(4-fluorophenyl)-3-imino-2,2-dimethyloctahydropyrano[4,3-b][1,4]thiazine 1,1-dioxide] | 3.9 | 1.9 |  |
| CC1(C)C[C@@H]2[C@](c3cc(Oc4ncc(F)cc4F)ccc3F)(CO1)NC(=N)C(C)(C)S2(=O)=O [Example 20, (4aS,8aR)-4a-{5-[(3,5-difluoropyridin-2-yl)oxy]-2-fluorophenyl}-2,2,7,7-tetramethyltetrahydro-2H,5H-pyrano[4,3-b][1,4]thiazin-3(4H)-imine 1,1-dioxide] | 53.2 | 102 |  |
| CC1(C)C[C@@H]2[C@](c3cc(Oc4cc(F)cnc4F)ccc3F)(CO1)NC(=N)C(C)(C)S2(=O)=O [Example 21, (4aS,8aR)-4a-{5-[(2,5-difluoropyridin-3-yl)oxy]-2-fluorophenyl}-2,2,7,7-tetramethyltetrahydro-2H,5H-pyrano[4,3-b][1,4]thiazin-3(4H)-imine 1,1-dioxide] | 9.7 | 88 |  |
| CC1(C)C[C@@H]2[C@](c3cc(Oc4ncccc4F)ccc3F)(CO1)NC(=N)C(C)(C)S2(=O)=O [Example 18, (4aS,8aR)-4a-{2-fluoro-5-[(3-fluoropyridin-2-yl)oxy]phenyl}-2,2,7,7-tetramethyltetrahydro-2H,5H-pyrano[4,3-b][1,4]thiazin-3(4H)-imine 1,1-dioxide] | 22.4 | 42.2 |  |
| CC(C)COc1ccc(F)c([C@]23CO[C@@H](C)C[C@H]2S(=O)(=O)C(C)(C)C(=N)N3)c1 [Example 4, (4aS,7S,8aR)-4a-(2-fluoro-5-isobutoxyphenyl)-3-imino-2,2,7-trimethyloctahydropyrano[4,3-b][1,4]thiazine 1,1-dioxide] | 354 | 31.6 |  |

Further lines, results first:

| Ki [1] [nM] | Ki [2] [nM] | inhibition at 10 µM ([1]; @10 μM, read-out: BACE-1 inhibition (printed in BACE-1 Ki column)) [%] | Structure (SMILES) |
| --- | --- | --- | --- |
| 17.5 | 4.9 |  | C[C@H]1C[C@@H]2[C@](c3cc(Oc4ncccc4F)ccc3F)(CO1)NC(=N)C(C)(C)S2(=O)=O [Example 5, (4aS,7S,8aR)-4a-(2-fluoro-5-((3-fluoropyridin-2-yl)oxy)phenyl)-3-imino-2,2,7-trimethyloctahydropyrano[4,3-b][1,4]thiazine 1,1-dioxide] |
| 363 | 72.5 |  | C[C@H]1C[C@@H]2[C@](c3ccccc3F)(CO1)NC(=N)C(C)(C)S2(=O)=O [Example 1, (4aS,7S,8aR)-4a-(2-fluorophenyl)-3-imino-2,2,7-trimethyloctahydropyrano[4,3-b][1,4]thiazine 1,1-dioxide] |
|  | 6260 | 50 | C[C@@H]1C[C@@H]2[C@](c3ccccc3F)(CO1)NC(=N)C(C)(C)S2(=O)=O [Example 2, (4aS,7R,8aR)-4a-(2-fluorophenyl)-3-imino-2,2,7-trimethyloctahydropyrano[4,3-b][1,4]thiazine 1,1-dioxide] |
| 2860 | 2020 |  | COc1ccc(F)c([C@]23CO[C@@H](CO)C[C@H]2S(=O)(=O)C(C)(C)C(=N)N3)c1 [Example 16, (4aS,7R,8aR)-4a-(2-fluoro-5-methoxyphenyl)-7-(hydroxymethyl)-3-imino-2,2-dimethyloctahydropyrano[4,3-b][1,4]thiazine 1,1-dioxide] |
| 681 | 249 |  | COc1ccc(F)c([C@]23CO[C@@H](C)C[C@H]2S(=O)(=O)C(C)(C)C(=N)N3)c1 [Example 10, (4aS,7S,8aR)-4a-(2-fluoro-5-methoxyphenyl)-3-imino-2,2,7-trimethyloctahydropyrano[4,3-b][1,4]thiazine 1,1-dioxide] |
